Data taken from ChEMBL document CHEMBL1275330, “Rational design, synthesis, and evaluation of new selective inhibitors of microbial class II (zinc dependent) fructose bis-phosphate aldolases” (J Med Chem, 2010).

Experiments:
Format in all cases: tissue-based
Conditions in all cases: Muscle tissue
[1] = Selectivity ratio of Km/ki for rabbit muscle […] Fba to Km/ki for Candida albicans zinc dependent class 2 Fba
[2] = Selectivity ratio of Km/ki for rabbit muscle […] Fba to Km/ki for Mycobacterium tuberculosis zinc dependent class 2 Fba
[3] = Selectivity ratio of Km/ki for rabbit muscle […] Fba to Km/ki for Helicobacter pylori recombinant zinc dependent class 2 Fba

Row | SMILES | Ratio [1] | Ratio [2] | Ratio [3]
1 | O=C(COP(=O)(O)O)N(O)CCCOP(=O)(O)O | 7500 | 28000 | 23000
2 | CCCCCCCCCCCC(=O)OCCCCN(O)C(=O)COP(=O)(O)O | 475 | 305 | 19
3 | O=C(COP(=O)(O)O)N(O)CCCO | 34000 | 20000 | 600
